Test results: patent US4554275A, “Triazine derivatives” (Nippon Shinyaku Co., Ltd., priority 1982, dated 1985)

Key:
Carrageenin Edema = experiment: Carrageenin edema inhibitory action (rat hind paw swelling); type: in vivo, male rats (SLC-SD strain); conditions: po, 3 h, 400 mg/kg orally, one hour before 0.1 ml of 0.5% carrageenin into right hind paw, measured three hours later, vs control group, read-out: Carrageenin Edema Inhibitory Rate (%)
Protocol: Five male rats (SLC-SD strain, five weeks age, supplied by Seidokyo) were used in one group in the experiment. Drugs to be tested were given orally at a dose of 400 mg/kg and, one hour later, 0.1 ml of 0.5% carrageenin was injected subcutaneously to right hind paw. Three hours later, volumes of the right hind paws were measured, volumes of the paws before the carrageenin injection were deducted therefrom, and the resulting volumes were defined as a degree of swelling.
The inhibitory rates were calculated from mean degree of swelling of the drug-administered groups and the control group and the result is shown in Table 1.

male mice = conditions: mouse, in vivo, po, 2000 mg/kg

SMILES	inhibition in vivo at 400 mg/kg (Carrageenin Edema)	Acute toxicity (male mice)
Nc1nc(N)nc(-c2ccc(Cl)c3ccccc23)n1 [Example 14, 2,4-diamino-6-(1-chloro-4-naphthyl)-s-triazine]	42.6%	–
COc1ccc(-c2nc(N)nc(N)n2)c2ccccc12 [Example 9, 2,4-diamino-6-(1-methoxy-4-naphthyl)-s-triazine]	52.4%	no toxicity was observed
Nc1nc(N)nc(-c2ccc3cc(OCc4ccccc4)ccc3c2)n1 [Example 10, 2,4-diamino-6-(2-benzyloxy-6-naphthyl)-s-triazine]	50.3%	–
COc1cc2ccccc2cc1-c1nc(N)nc(NC(=O)c2cccnc2)n1 [Example 19, 2-amino-4-nicotinamido-6-(2-methoxy-3-naphthyl)-s-triazine]	35%	–
Nc1nc(NC(=O)c2cccnc2)nc(-c2ccc(Cl)c3ccccc23)n1 [Example 24, 2-amino-4-nicotinamido-6-(1-chloro-4-naphthyl)-s-triazine]	25%	no toxicity was observed
COc1ccc2cc(-c3nc(N)nc(N)n3)ccc2c1 [Example 16, 2,4-diamino-6-(2-methoxy-6-naphthyl)-s-triazine]	51.1%	–
COc1ccc(-c2nc(N)nc(NC(=O)c3cccnc3)n2)c2ccccc12 [Example 2, 2-amino-4-nicotinoylamino-6-(1-methoxy-4-naphthyl)-s-triazine]	34.7%	no toxicity was observed
Nc1nc(N)nc(-c2ccc(OCc3ccccc3)c3ccccc23)n1 [Example 6, 2,4-diamino-6-(1-benzyloxy-4-naphthyl)-s-triazine]	30.9%	–
Nc1nc(NC(=O)c2cccnc2)nc(-c2cc3ccccc3cc2Br)n1 [Example 27, 2-amino-4-nicotinamido-6-(2-bromo-3-naphthyl)-s-triazine]	33.5%	–
COc1ccc2ccccc2c1-c1nc(N)nc(N)n1 [Example 7, 2,4-diamino-6-(2-methoxy-1-naphthyl)-s-triazine]	44.6%	–
Nc1nc(N)nc(-c2cc3ccccc3cc2F)n1 [Example 11, 2,4-diamino-6-(2-fluoro-3-naphthyl)-s-triazine]	48.8%	–
Nc1nc(NC(=O)c2cccnc2)nc(-c2ccc(Br)c3ccccc23)n1 [Example 25, 2-amino-4-nicotinamidio-6-(1-bromo-4-naphthyl)-s-triazine]	25.1%	–
Nc1nc(NC(=O)c2cccnc2)nc(-c2ccc3ccccc3c2O)n1 [Example 28, 2-amino-4-nicotinamido-6-(1-hydroxy-2-naphthyl)-s-triazine]	19.4%	no toxicity was observed
COc1cc2ccccc2cc1-c1nc(N)nc(N)n1 [Example 1, 2,4-diamino-6-(2-methoxy-3-naphthyl)-s-triazine]	60.3%	no toxicity was observed
Nc1nc(N)nc(-c2cc3ccccc3cc2Br)n1 [Example 13, 2,4-diamino-6-(2-bromo-3-naphthyl)-s-triazine]	49.1%	–
Nc1nc(NC(=O)c2cccnc2)nc(-c2ccc3ccccc3c2)n1 [Example 18, 2-Amino-4-nicotinoylamino-6-beta-naphthyl-s-triazine]	24.8%	no toxicity was observed
Nc1nc(N)nc(-c2cc3ccccc3cc2Cl)n1 [Example 12, 2,4-diamino-6-(2-chloro-3-naphthyl)-s-triazine]	61.3%	no toxicity was observed
Nc1nc(NC(=O)c2cccnc2)nc(-c2cc3ccccc3cc2F)n1 [Example 3, 2-amino-4-nicotinoylamino-6-(2-fluoro-3-naphthyl)-s-triazine]	56.5%	no toxicity was observed
Nc1nc(N)nc(-c2ccc(Br)c3ccccc23)n1 [Example 15, 2,4-diamino-6-(1-bromo-4-naphthyl)-s-triazine]	48.4%	–
Nc1nc(NC(=O)c2cccnc2)nc(-c2ccc3cc(OCc4ccccc4)ccc3c2)n1 [Example 23, 2-amino-4-nicotin-amido-6-(6-benzyloxy-2-naphthyl)-s-triazine]	28.1%	no toxicity was observed
Nc1nc(N)nc(-c2cc3ccccc3cc2OCc2ccccc2)n1 [Example 5, 2,4-diamino-6-(2-benzyloxy-3-naphthyl)-s-triazine]	30.4%	–
